Data: ChEMBL document CHEMBL4476867, “Hydroxy formamide derivatives and their use” (2016)

Columns and labels:
Tolloid-like protein 1 = Tolloid-like protein 1 (Homo sapiens, UniProt O43897, I156V/N221S/V284A); assay: Inhibition of recombinant human TLL1 I156V/N221S/V284A mutant expressed in CHOE1A cells pre-incubated for 10 mins before promyostatin peptide substrate addition and measured after 60 mins by FRET based assay; assay type: cell-based
[1] = target: T1, Bone morphogenetic protein 1 (Homo sapiens, UniProt P13497); assay: Inhibition of C-terminal FLAG-6x-His epitope tagged and N-terminal human RAGE signal sequence tagged human BMP1 (23 to 721 amino acids) expressed in CHO-E1 cells pre-incubated for 10 mins before promyostatin peptide substrate addition and measured after 60 mins using 0.5 nM BMP1 by FRET based assay; assay type: cell-based
T1 sequence (P13497 whole entry): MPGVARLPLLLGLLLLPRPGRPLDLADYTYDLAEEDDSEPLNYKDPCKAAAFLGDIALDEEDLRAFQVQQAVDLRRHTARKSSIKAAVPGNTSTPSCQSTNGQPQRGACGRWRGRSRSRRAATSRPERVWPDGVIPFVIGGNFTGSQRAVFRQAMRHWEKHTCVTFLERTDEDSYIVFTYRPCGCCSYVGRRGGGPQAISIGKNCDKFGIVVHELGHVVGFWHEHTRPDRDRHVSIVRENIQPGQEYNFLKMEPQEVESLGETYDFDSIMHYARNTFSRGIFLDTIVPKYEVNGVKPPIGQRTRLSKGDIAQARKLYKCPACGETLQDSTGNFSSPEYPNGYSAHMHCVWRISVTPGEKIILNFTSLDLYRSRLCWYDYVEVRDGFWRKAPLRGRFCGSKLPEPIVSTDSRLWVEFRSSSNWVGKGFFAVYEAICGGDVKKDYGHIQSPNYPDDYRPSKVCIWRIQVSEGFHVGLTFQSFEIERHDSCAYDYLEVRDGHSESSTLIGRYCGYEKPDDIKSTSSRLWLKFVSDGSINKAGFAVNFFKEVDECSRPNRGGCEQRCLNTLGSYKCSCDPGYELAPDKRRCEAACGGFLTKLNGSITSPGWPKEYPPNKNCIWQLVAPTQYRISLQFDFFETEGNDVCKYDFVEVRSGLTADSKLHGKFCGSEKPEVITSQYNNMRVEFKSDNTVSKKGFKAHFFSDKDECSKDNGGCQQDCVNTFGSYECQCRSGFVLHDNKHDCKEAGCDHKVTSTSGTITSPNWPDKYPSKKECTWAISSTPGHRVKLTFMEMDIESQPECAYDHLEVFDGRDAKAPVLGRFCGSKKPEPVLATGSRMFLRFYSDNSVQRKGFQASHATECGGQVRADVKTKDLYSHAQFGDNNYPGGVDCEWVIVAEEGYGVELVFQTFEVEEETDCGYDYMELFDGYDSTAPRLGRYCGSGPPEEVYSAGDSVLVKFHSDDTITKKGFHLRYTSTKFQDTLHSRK

Tolloid-like protein 2 = target: T2, Tolloid-like protein 2 (Homo sapiens, UniProt Q9Y6L7); assay: Inhibition of C-terminal Avi-6x-His epitope tagged and N-terminal human RAGE signal sequence tagged recombinant human TLL2 (26 to 1015 amino acids) expressed in CHOE1A cells incubated for 60 mins with promyostatin peptide substrate by FRET based assay; assay type: cell-based
T2 sequence (Q9Y6L7 whole entry): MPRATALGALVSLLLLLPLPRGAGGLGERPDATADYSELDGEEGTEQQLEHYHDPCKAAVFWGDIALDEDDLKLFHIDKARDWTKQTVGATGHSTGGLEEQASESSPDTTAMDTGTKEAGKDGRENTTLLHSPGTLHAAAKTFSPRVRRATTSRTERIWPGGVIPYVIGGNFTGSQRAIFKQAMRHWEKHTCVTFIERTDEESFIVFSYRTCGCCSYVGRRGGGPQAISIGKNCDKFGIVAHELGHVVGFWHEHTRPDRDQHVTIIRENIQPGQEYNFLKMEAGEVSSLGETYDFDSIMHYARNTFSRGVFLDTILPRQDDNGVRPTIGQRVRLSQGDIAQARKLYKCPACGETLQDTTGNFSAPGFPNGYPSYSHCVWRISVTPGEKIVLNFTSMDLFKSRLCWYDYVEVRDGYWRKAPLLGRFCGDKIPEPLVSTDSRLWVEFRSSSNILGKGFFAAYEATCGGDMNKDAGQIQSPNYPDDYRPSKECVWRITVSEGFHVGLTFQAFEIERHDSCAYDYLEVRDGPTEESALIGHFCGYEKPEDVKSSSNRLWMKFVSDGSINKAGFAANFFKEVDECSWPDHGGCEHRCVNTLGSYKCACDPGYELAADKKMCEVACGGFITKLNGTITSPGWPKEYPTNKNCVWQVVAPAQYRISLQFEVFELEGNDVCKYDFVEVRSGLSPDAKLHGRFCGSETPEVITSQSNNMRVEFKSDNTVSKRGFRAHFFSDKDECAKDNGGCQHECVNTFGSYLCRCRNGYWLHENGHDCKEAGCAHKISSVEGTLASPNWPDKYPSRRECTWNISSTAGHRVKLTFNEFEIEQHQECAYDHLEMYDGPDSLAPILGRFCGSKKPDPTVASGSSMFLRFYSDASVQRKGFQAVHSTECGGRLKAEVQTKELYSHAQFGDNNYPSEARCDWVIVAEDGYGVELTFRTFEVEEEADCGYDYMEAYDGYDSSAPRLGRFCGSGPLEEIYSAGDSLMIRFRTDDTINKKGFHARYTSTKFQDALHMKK

[2] = target: T1, Bone morphogenetic protein 1; assay: Inhibition of C-terminal FLAG-6x-His epitope tagged and N-terminal human RAGE signal sequence tagged human BMP1 (23 to 721 amino acids) expressed in CHO-E1 cells pre-incubated for 10 mins before promyostatin peptide substrate addition and measured after 30 mins using 50 nM BMP1 by FRET based assay; assay type: cell-based
[3] = Reduction in PICP levels in human cardiac fibroblasts incubated for 24 to 48 hrs by ELISA; assay type: functional
In short: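 Human cardiac fibroblasts at passage 6 or below were plated in 96-well plates at 10,000 to 15,000 cells per well. On the following day, cells were treated for 24 to 48 hr at 37° C in ficoll crowding EMEM containing 100 μM ascorbic acid, with DMSO kept under 0.3%. A Quidel ELISA measured procollagen I C-terminal propeptide released into the medium, and IC50 values were derived in GraphPad Prism by fitting levels, expressed relative to untreated controls, to a log(inhibitor)-response equation.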

Tolloid-like protein 1, sequence (O43897 148-1013 I156V/N221S/V284A limits assumed): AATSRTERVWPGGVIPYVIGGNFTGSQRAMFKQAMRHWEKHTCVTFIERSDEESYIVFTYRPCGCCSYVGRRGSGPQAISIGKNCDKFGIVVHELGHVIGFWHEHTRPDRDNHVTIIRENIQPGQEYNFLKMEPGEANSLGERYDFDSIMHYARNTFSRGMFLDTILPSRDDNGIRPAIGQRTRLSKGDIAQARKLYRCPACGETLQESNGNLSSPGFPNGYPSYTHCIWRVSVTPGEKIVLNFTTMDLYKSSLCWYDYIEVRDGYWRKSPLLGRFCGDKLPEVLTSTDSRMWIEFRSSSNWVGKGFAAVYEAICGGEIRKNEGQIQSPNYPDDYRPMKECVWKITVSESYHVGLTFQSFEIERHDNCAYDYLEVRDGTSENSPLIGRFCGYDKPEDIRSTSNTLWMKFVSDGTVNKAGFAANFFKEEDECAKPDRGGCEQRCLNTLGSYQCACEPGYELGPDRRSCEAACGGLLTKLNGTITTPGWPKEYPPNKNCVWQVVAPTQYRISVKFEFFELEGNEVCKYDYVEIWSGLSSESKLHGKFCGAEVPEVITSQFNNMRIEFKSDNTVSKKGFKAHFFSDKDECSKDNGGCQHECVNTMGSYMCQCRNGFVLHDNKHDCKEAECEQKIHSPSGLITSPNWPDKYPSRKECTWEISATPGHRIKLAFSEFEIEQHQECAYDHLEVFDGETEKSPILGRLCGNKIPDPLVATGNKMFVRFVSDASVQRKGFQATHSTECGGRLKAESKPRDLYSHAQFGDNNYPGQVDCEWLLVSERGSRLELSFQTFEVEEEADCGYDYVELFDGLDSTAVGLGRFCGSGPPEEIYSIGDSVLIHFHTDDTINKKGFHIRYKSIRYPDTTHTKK

SMILES	IC50 (Tolloid-like protein 1)	IC50 [1]	IC50 (Tolloid-like protein 2)	IC50 [2]	IC50 [3]
CCOc1cc(-c2ccc(C(=O)NCNC(=O)[C@H](CCc3ccccc3)[C@@H](CC)N(O)C=O)o2)cc(P(=O)(O)O)c1	< 398 nM	< 126 nM	< 794 nM	< 200 nM	< 3980 nM
CCCCC[C@@H](C(=O)NCNC(=O)c1ccc(-c2cc(OCC)cc(C(F)(F)C(=O)O)c2)o1)[C@@H](CC)N(O)C=O	< 398 nM	< 126 nM	< 794 nM	< 200 nM	< 3980 nM
CCCCC[C@@H](C(=O)NCNC(=O)c1ccc(-c2ccc(F)c(CC(=O)O)c2)o1)[C@@H](CC)N(O)C=O	< 398 nM	< 126 nM	< 794 nM	< 200 nM	< 3980 nM
CCCCC[C@H](CN(O)C=O)C(=O)NCNC(=O)c1ccc(-c2cc(OC)cc(OC)c2)o1	< 398 nM	< 126 nM	< 794 nM	< 200 nM	< 3980 nM
CCCCC[C@@H](C(=O)NCNC(=O)c1ccc(-c2ccc(C(=O)N[C@@H](CC(=O)O)C(=O)O)c(C)c2)o1)[C@@H](CC)N(O)C=O	< 398 nM	< 126 nM	< 794 nM	< 200 nM	< 3980 nM
CCCCC[C@H](CN(O)C=O)C(=O)NCNC(=O)c1ccc(-c2cccc(S(=O)(=O)NC)c2)o1	< 398 nM	< 126 nM	< 794 nM	< 200 nM	< 3980 nM
CCCCC[C@H](CN(O)C=O)C(=O)NCNC(=O)c1ccc(-c2cccc(C(C)C(=O)O)c2)o1 (stereo not given in full)	< 398 nM	< 126 nM	< 794 nM	< 200 nM	< 3980 nM
CCCCC[C@H](CN(O)C=O)C(=O)NCNC(=O)c1ccc(-c2ccc(F)c(C(=O)O)c2F)o1	< 398 nM	< 126 nM	< 794 nM	< 200 nM	< 3980 nM
CCOc1cc(-c2ccc(C(=O)NCNC(=O)[C@H](CCc3ccc4ccccc4c3)[C@@H](CC)N(O)C=O)o2)ccc1C(=O)N[C@@H](CC(=O)O)C(=O)O	< 398 nM	< 126 nM	< 794 nM	< 200 nM	< 3980 nM
CCCCC[C@@H](C(=O)NCNC(=O)c1ccc(-c2ccc(C(=O)N[C@@H](CCC(=O)O)C(=O)O)cc2)o1)[C@@H](CC)N(O)C=O	< 398 nM	< 126 nM	< 794 nM	< 200 nM	< 3980 nM
CCCCC[C@@H](C(=O)NCNC(=O)c1ccc(-c2cccc(C(=O)N[C@@H](CC(=O)O)C(=O)O)c2)o1)[C@@H](CC)N(O)C=O	< 398 nM	< 126 nM	< 794 nM	< 200 nM	< 3980 nM
CCCCC[C@@H](C(=O)NCNC(=O)c1ccc(-c2cc(O)cc(OCC)c2)o1)[C@@H](CC)N(O)C=O	< 398 nM	< 126 nM	< 794 nM	< 200 nM	< 3980 nM
CCCCC[C@H](CN(O)C=O)C(=O)NCNC(=O)c1ccc(-c2cccc(C(=O)O)c2)o1	< 398 nM	< 126 nM	< 794 nM	< 200 nM	< 3980 nM
CCCCC[C@@H](C(=O)NCNC(=O)c1ccc(-c2cc(OCC(N)=O)cc(C(=O)O)c2)o1)[C@@H](CC)N(O)C=O	< 398 nM	< 126 nM	< 794 nM	< 200 nM	< 3980 nM
CCCCC[C@@H](C(=O)NCNC(=O)c1ccc(-c2ccc(C(=O)N[C@H](CC(=O)O)C(=O)O)cc2)o1)[C@@H](CC)N(O)C=O	< 398 nM	< 126 nM	< 794 nM	< 200 nM	< 3980 nM
CCCCC[C@H](CN(O)C=O)C(=O)NCNC(=O)c1ccc(-c2ccc(C(=O)O)cc2)o1	< 398 nM	< 126 nM	< 794 nM	< 200 nM	< 3980 nM
CCCCC[C@@H](C(=O)NCNC(=O)c1ccc(-c2cc(OCC)cc(C(=O)N[C@@H](CCC(=O)OC)C(=O)OC)c2)o1)[C@@H](CC)N(O)C=O	< 398 nM	< 126 nM	< 794 nM	< 200 nM	< 3980 nM
CCCCC[C@@H](C(=O)NCNC(=O)c1ccc(-c2cc(CNCP(=O)(O)O)cc(OCC)c2)o1)[C@@H](CC)N(O)C=O	< 398 nM	< 126 nM	< 794 nM	< 200 nM	< 3980 nM
CC[C@H]([C@@H](CCc1ccc(F)cc1F)C(=O)NCNC(=O)c1ccc(-c2cc(OCC(=O)O)cc(C(=O)O)c2O)o1)N(O)C=O	< 398 nM	< 126 nM	< 794 nM	< 200 nM	< 3980 nM
CCCCC[C@@H](C(=O)NCNC(=O)c1ccc(-c2cc(CN(C)CC(=O)O)cc(OCC)c2)o1)[C@@H](CC)N(O)C=O	< 398 nM	< 126 nM	< 794 nM	< 200 nM	< 3980 nM
CCCCC[C@@H](C(=O)NCNC(=O)c1ccc(-c2ccc(C(=O)N[C@@H](CCC(=O)O)C(=O)O)c(OCC)c2)o1)[C@@H](CC)N(O)C=O	< 398 nM	< 126 nM	< 794 nM	< 200 nM	< 3980 nM
CCCCC[C@H](CN(O)C=O)C(=O)NCNC(=O)c1ccc(-c2cccc(C(=O)O)c2F)o1	< 398 nM	< 126 nM	< 794 nM	< 200 nM	< 3980 nM
CCCCC[C@H](CN(O)C=O)C(=O)NCNC(=O)c1ccc(-c2cccc(P(C)(=O)O)c2)o1	< 398 nM	< 126 nM	< 794 nM	< 200 nM	< 3980 nM
CCCCC[C@@H](C(=O)NCNC(=O)c1ccc(-c2cc(OCC)cc(C(=O)N[C@@H](CCC(=O)O)C(=O)OC(C)(C)C)c2)o1)[C@@H](CC)N(O)C=O	< 398 nM	< 126 nM	< 794 nM	< 200 nM	< 3980 nM
CCCCC[C@H](CN(O)C=O)C(=O)NCNC(=O)c1ccc(-c2cccc(C(=O)O)c2OC)o1	< 398 nM	< 126 nM	< 794 nM	< 200 nM	< 3980 nM
